Source: patent publication US20240335570A1, “FOLATE RECEPTOR-TARGETED CONJUGATES WITH BRUSH BORDER MEMBRANE ENZYME-CLEAVABLE LINKERS AND METHODS OF USE IN IMAGING AND TREATING CANCER” (PURDUE RESEARCH FOUNDATION, priority 2021, published 2024)
No end group written: not given here.

Each compound was assayed on KB cells (assay: Folate conjugate binding curves in KB cells by flow cytometry). Conditions: KB cells incubated 1 hour at 4° C. with increasing concentrations of conjugate, concentrations normalized via fluorescence, read-out: Kd (folate conjugate binding curve).
Procedure: KB cells were incubated for 1 hour at 4° C. with increasing concentrations of OTL38, BBM1, BBM2, or BBM3 in staining buffer, washed three times with staining buffer, and then analyzed via flow cytometry.
KB cells were incubated for 1 hour at 4° C. with increasing concentrations of OTL38, BBM1, BBM2 or BBM3 in staining buffer, washed three times with staining buffer, suspended in phosphate-buffered saline, and then analyzed via flow cytometry. Concentrations of all conjugates were normalized via fluorescence.
For CCCCCN1c2ccc(C)cc2C(C)(C)C1CCc1cccc(CCC2N(CCCCC)c3ccc(C)cc3C2(C)C)c1Oc1ccc(CCNC(=O)CCN2C(=O)CC(SCC(NC(=O)C(CCCCN)NC(=O)[C@@H](NC(=O)C(CCCC)NC(=O)CCC(NC(=O)c3ccc(NCc4cnc5nc(N)nc(O)c5n4)cc3)C(=O)O)C(C)C)C(=O)O)C2=O)cc1 (stereo partly drawn) [BBM1], the Kd was 0.0123 µM.
Compound “BBM2: Folate dye conjugate; a peptide with the sequence M-V-K-G-Y-G-K-C (MVKGYGKC; also: folate dye conjugate (site not given here))” has a Kd of 0.0296 µM.
Work on OTL38 [reference compound] yielded a Kd of 0.0067 µM.
